Experimental data taken from publication PMC9693145, “Optimization of Extraction Conditions and Cytotoxic Activity of Rapanone in Comparison to Its Homologue, Embelin” (Molecules, 2022).
pIC50: −log10 of the molar value. ≈ marks a conversion by molar mass, not a printed value. Read-outs that look alike come from different tables or passages of the source.

Tests used:
[1] = system: PC3 grade IV prostate carcinoma; assay: LDH cytotoxicity assay, PC3 cells; format: cell-based; conditions: Homo sapiens
Excerpt: (§1) In the study, […] human cancer and normal cell lines were used. They were grouped as follows: prostate panel (prostate carcinoma Du145, derived from the metastatic site: brain, ATCC HTB-81; grade IV prostate carcinoma, PC3, derived from the metastatic site: bone, ATCC CRL-1435; prostate epithelial cells PNT2, ECACC 95012613), gastrointestinal panel (colorectal adenocarcinomas Caco2, ATCC HTB-37, and HT29, ATCC HTB-38; hepatocellular carcinoma HepG2, ATCC HB-8065), thyroid panel (follicular thyroid carcinoma FTC133, ECACC 94060901; undifferentiated thyroid carcinoma 8505C, ECACC 94090184). Cells were grown at 37 °C in a 5% CO2 atmosphere, with relative humidity, with culture medium DMEM/F12 (PC3, PNT2, FTC133, 8505C, HT29, and HepG2), DMEM low glucose (Du145), MEM with NEAA (Caco-2), supplemented with 10% fetal bovine serum (FBS), and appropriate antibiotics. Cells were seeded in 96-well plates (1.5 × 10^4 cells/well) and kept for 24 and 48 h. Subsequently, the culture medium was replaced with a fresh medium containing different concentrations of the tested substances from 4 to 50 µg/mL and the cells were incubated for 24 and 48 h. As a reference drug, doxorubicin was used. Cell viability was examined using the LDH assay, as previously described. The absorbance was measured at 490 nm (the reference wavelength 600 nm) with a Biotek Synergy microplate reader. Each experiment was performed in triplicate. Cytotoxicity of the samples was measured using the formula: %cytotoxicity=Asample−Aspont/Amax−Aspont×100 where: • Asample is the absorbance value for cells treated with the tested substances • Aspont is the value for spontaneous LDH release • Amax the value in cells lysed in the presence of Triton X100 • The half-maximal effective concentration value IC50, defined as the substance concentration necessary to obtain 50% of dead cells, was determined.
(§2) In the study evaluating optimization extraction conditions, the outlying values of rapanone amount in each set of parameters were removed. Thirty-two outlier values were determined using “Extreme Outlier” software (MP System Co., Kraków, Poland), with an algorithm implemented by Shoemaker and based on a robust technique proposed by Tukey. The ANOVA procedure was used to assess the impact of changing individual parameters on the amount of rapanone obtained in various extraction systems. The same statistical procedure was used to determine the regression coefficients of the primary parameters in the respective multinomial models (describing the relationship between the amount of rapanone and the experimental conditions) and to establish the statistical significance of these coefficients. […] The results with the highest number of differences were chosen as representing the combinations of parameters, (i.e., the particular variants of experimental systems), that were used giving the highest efficacy of the extraction process. IC50 values in cytotoxicity analysis were estimated using GraphPad 5 Prism. A comparison of the means in a cytotoxicity analysis was performed using one-way ANOVA followed by a posthoc Tukey test.

Du145 prostate carcinoma = assay: LDH cytotoxicity assay, Du145 cells; format: cell-based, human; conditions: for mean percentage of dead Du145 cells: 10 μg/mL, 24 h of incubation; for IC50: Homo sapiens, DU-145, LDH assay
Excerpt: as §1, §2

[2] = system: PNT2 prostate epithelial cells; assay: LDH cytotoxicity assay, PNT2 cells; format: cell-based, human; conditions: for mean percentage of dead PNT2 cells: 10 μg/mL, 24 h of incubation; for IC50: Homo sapiens, PNT2 normal prostate epithelial cells, LDH assay
Excerpt: as §1, §2

[3] = system: Caco-2 colorectal adenocarcinoma; assay: LDH cytotoxicity assay, Caco-2 cells; format: cell-based, human; conditions: for IC50: Homo sapiens
Excerpt: as §1, §2

[4] = system: HT29 colorectal adenocarcinoma; assay: LDH cytotoxicity assay, HT29 cells; format: cell-based; conditions: Homo sapiens
Excerpt: as §1, §2

[5] = system: undifferentiated thyroid carcinoma 8505C; assay: LDH cytotoxicity assay, 8505C cells; format: cell-based; conditions: Homo sapiens
Excerpt: as §1, §2

PC3 = conditions: cited from earlier work
[6] = system: HepG2 hepatocellular carcinoma; assay: LDH cytotoxicity assay, HepG2 cells; format: cell-based; conditions: Homo sapiens
Excerpt: as §1
(§3) In the study evaluating optimization extraction conditions, the outlying values of rapanone amount in each set of parameters were removed. Thirty-two outlier values were determined using “Extreme Outlier” software (MP System Co., Kraków, Poland), with an algorithm implemented by Shoemaker and based on a robust technique proposed by Tukey. The ANOVA procedure was used to assess the impact of changing individual parameters on the amount of rapanone obtained in various extraction systems. The same statistical procedure was used to determine the regression coefficients of the primary parameters in the respective multinomial models (describing the relationship between the amount of rapanone and the experimental conditions) and to establish the statistical significance of these coefficients. […]

[7] = system: follicular thyroid carcinoma FTC133; assay: LDH cytotoxicity assay, FTC133 cells; format: cell-based; conditions: Homo sapiens
Excerpt: as §1, §3

Du145 = system: Du145; parameters: method as in earlier work; conditions: castration-resistant prostate cancer cells Du145; read-out: IC50 inhibition of proliferation, Du145; cited from earlier work
HT29 cells = conditions: cited from earlier work
[8] = parameters: method as in PMID 26252009; conditions: EZ-CyTox kit, cell line not stated, cited from earlier work
[9] = PC-3, PC3, 24 h incubation, read-out: IC50 PC3 24 h
[10] = Du145, 24 h incubation, read-out: IC50 Du145 24 h
[11] = 24 h incubation, read-out: IC50 PNT2 24 h
[12] = Caco-2, 24 h, Caco-2, 24 h incubation, read-out: IC50 Caco-2 24 h
[13] = HT-29, HT29, 24 h incubation, read-out: IC50 HT29 24 h
[14] = 24 h incubation, read-out: IC50 8505C 24 h
[15] = PC-3, PC3, 48 h incubation, read-out: IC50 PC3 48 h
[16] = Du145, 48 h incubation, read-out: IC50 Du145 48 h
[17] = 48 h incubation, read-out: IC50 PNT2 48 h
[18] = Caco-2, 48 h, Caco-2, 48 h incubation, read-out: IC50 Caco-2 48 h
[19] = HT-29, HT29, 48 h incubation, read-out: IC50 HT29 48 h
[20] = HepG2, 24 h incubation, read-out: IC50 HepG2 24 h
[21] = HepG2, 48 h incubation, read-out: IC50 HepG2 48 h
[22] = FTC-133, FTC133, 24 h incubation, read-out: IC50 FTC133 24 h
[23] = FTC-133, FTC133, 48 h incubation, read-out: IC50 FTC133 48 h
[24] = 48 h incubation, read-out: IC50 8505C 48 h

Compound | IC50 [1, 9] [µg/mL] | mean percentage of dead Du145 cells (Du145 prostate carcinoma) [%] | IC50 (Du145 prostate carcinoma; [10]) [µg/mL] | mean percentage of dead PNT2 cells [2] [%] | IC50 [2, 11] [µg/mL] | IC50 [3, 12] [µg/mL] | IC50 [4, 13] [µg/mL] | IC50 [5, 14] [µg/mL] | IC50 [1, 15] [µg/mL] | IC50 (Du145 prostate carcinoma; [16]) [µg/mL] | IC50 [2, 17] [µg/mL] | IC50 [3, 18] [µg/mL] | IC50 [4, 19] [µg/mL] | IC50 [6, 20] [µg/mL] | IC50 [6, 21] [µg/mL] | IC50 [7, 22] [µg/mL] | IC50 [7, 23] [µg/mL] | IC50 [5, 24] [µg/mL] | other results
COc1cccc2c1C(=O)c1c(O)c3c(c(O)c1C2=O)C[C@@](O)(C(=O)CO)C[C@@H]3O[C@H]1C[C@H](N)[C@H](O)[C@H](C)O1 [Doxorubicin] | > 50 | 88.38 | 3.18 | 99.21 | 1.38 | 3.44 | 1.53 | > 40 |  |  |  |  |  |  |  |  |  |  | times lower activity towards PC3 than towards Du145 (PC3; doxorubicin, PC3 vs Du145): about 20
CCCCCCCCCCCC1=C(O)C(=O)C=C(O)C1=O [Embelin] | 9.27 | 61.67 | 8.02 | 49.00 | 10.1 | 6.12 | 24.7 | 18.9 | 5.24 | 4.18 | 4.61 | 3.37 | 13.7 | 16 | 6.77 | 10.5 | 6.48 | 13.8 | pIC50 (PC3; castration-resistant prostate cancer cells PC3, read-out: IC50 inhibition of proliferation, PC3): 4.87; pIC50 (Du145): 4.67; IC50 in HT29 cells (Sumalatha) (HT29 cells; HT29): 35 µg/mL (≈ 119 µM); pIC50 ([8]; 24 h, read-out: IC50 after 24 h (Park et al.)): < 3.70; pIC50 ([8]; 48 h, read-out: IC50 after 48 h (Park et al.)): 4.04
CCCCCCCCCCCCCC1=C(O)C(=O)C=C(O)C1=O [Rapanone] | 6.5 | 82.33 | 7.68 | 9.30 | 16.7 | 8.76 | 16.9 | 7.84 | 4.92 | 5.07 | 12.7 | 5.66 | 11.7 | 36.3 | 16.7 | 6.01 | 4.42 | 5.5 | IC50 Caco-2 24 h ([3]; Caco-2, 24 h incubation): 8.79 µg/mL; IC50 reported by Cordero et al., converted (HT29 cells; HT29 (by context), 29.4 μM converted to μg/mL): 9.3 µg/mL (≈ 28.8 µM); pIC50 (HT29 cells; HT29 (by context), read-out: IC50 reported by Cordero et al.): 4.53
